46 compounds from the Biogen ADME set (Fang et al. 2023) can be followed below.

For this data set the following is noted: for aqueous solubility: pH 6.8.

≈ marks a conversion by molar mass, not a printed value.

The term aqueous solubility denotes the dissolved amount per volume that the medium holds. Low readings indicate a poorly soluble substance, high ones a readily soluble substance. `Cn1cc(C2CCN(CC(=O)N3CCc4sccc4C3)CC2)cn1`: the MDR1-MDCK efflux ratio turned out to be 2.76; the intrinsic clearance, human liver microsomes is not above 4.74 mL/min/kg; the intrinsic clearance, rat liver microsomes came out at 126 mL/min/kg; the aqueous solubility was determined as 62 µg/mL (≈ 180 µM).

For the compound `CCc1nc2cc(-c3c(OC)cccc3OC)ccc2o1`, the MDR1-MDCK efflux ratio came out at 0.46; the intrinsic clearance, human liver microsomes turned out to be 49.6 mL/min/kg; the intrinsic clearance, rat liver microsomes is 3760 mL/min/kg; the aqueous solubility turned out to be 19 µg/mL (≈ 67.1 µM).

`O=c1[nH]c2ccccc2n1C1CCN(c2ncnc3sccc23)CC1` returned an intrinsic clearance, human liver microsomes of 35 mL/min/kg; an intrinsic clearance, rat liver microsomes of 339 mL/min/kg; an aqueous solubility of 4.25 µg/mL (≈ 12.1 µM).

Consider `CNc1ncc(CN(C)CCN2CCCCC2)cn1`, for which the MDR1-MDCK efflux ratio was 1.13; the intrinsic clearance, human liver microsomes was found to be 6.66 mL/min/kg; the intrinsic clearance, rat liver microsomes came to 57.2 mL/min/kg.

In the case of `CCCCc1c(C)[nH]c2nc(N(Cc3cccs3)C(C)=O)nn2c1=O`, the MDR1-MDCK efflux ratio was 26; the intrinsic clearance, human liver microsomes came out at 13.7 mL/min/kg; the intrinsic clearance, rat liver microsomes turned out to be 81 mL/min/kg; the aqueous solubility stood at 39 µg/mL (≈ 108 µM).

Compound `Cc1cc(F)ccc1NC(=O)Cn1cncn1` displayed an intrinsic clearance, human liver microsomes not above 4.74 mL/min/kg; an intrinsic clearance, rat liver microsomes not above 10.7 mL/min/kg; an aqueous solubility of 35.1 µg/mL (≈ 150 µM).

As to `O=C1Nc2ccccc2O[C@H]2C[C@@H]1N(CC1CC1)C2`, the MDR1-MDCK efflux ratio turned out to be 0.851; the intrinsic clearance, human liver microsomes was determined as 14.5 mL/min/kg; the intrinsic clearance, rat liver microsomes was 377 mL/min/kg; the aqueous solubility was determined as 42.1 µg/mL (≈ 163 µM).

Turning to `Cc1ccnc(N2CC(O)(c3ccc(F)cc3)C2)c1C#N`, the MDR1-MDCK efflux ratio was 0.696; the intrinsic clearance, human liver microsomes was 99.1 mL/min/kg; the intrinsic clearance, rat liver microsomes is 3630 mL/min/kg.

As for `COc1ccc(-c2nnc3nn(C)c(=O)n3c2-c2ccc(OC)cc2)cc1`, the MDR1-MDCK efflux ratio was determined as 0.904 and the aqueous solubility was 0.25 µg/mL (≈ 0.688 µM).

Regarding `CCc1noc(C2CCC(NCC3CCC(F)(F)CC3)CC2)n1` (stereo not drawn), the MDR1-MDCK efflux ratio was found to be 2.98; the intrinsic clearance, human liver microsomes was determined as 54.4 mL/min/kg; the intrinsic clearance, rat liver microsomes came out at 240 mL/min/kg; the aqueous solubility amounted to 75.9 µg/mL (≈ 232 µM).

As for `Cc1cc(N(C)C)nc(N(C)Cc2csc(C)n2)n1`, the MDR1-MDCK efflux ratio worked out at 0.632; the intrinsic clearance, human liver microsomes was determined as 30.6 mL/min/kg; the intrinsic clearance, rat liver microsomes was determined as 681 mL/min/kg; the aqueous solubility was determined as 47.4 µg/mL (≈ 171 µM).

For the compound `CC(C)(C)c1nccc(NCc2ccncc2)n1`, the MDR1-MDCK efflux ratio was found to be 0.7; the intrinsic clearance, human liver microsomes stood at 14.1 mL/min/kg; the intrinsic clearance, rat liver microsomes was 748 mL/min/kg; the aqueous solubility stood at 30.4 µg/mL (≈ 125 µM).

In the case of `COc1cc(-c2ccc(Cn3nc(C)cc3C)cn2)cc(OC)c1OC`, the MDR1-MDCK efflux ratio was determined as 1.65; the intrinsic clearance, human liver microsomes was 46.1 mL/min/kg; the intrinsic clearance, rat liver microsomes was 345 mL/min/kg.

Regarding `CC1(C)[C@@H]2C[C@H]1[C@@]1(O)[C@@H](C2)Oc2c(ccc(O)c2C(=O)NCCc2ccccn2)[C@@H]1O`, the intrinsic clearance, human liver microsomes was 555 mL/min/kg and the intrinsic clearance, rat liver microsomes is 910 mL/min/kg.

Take `CC(C)(C(=O)NCc1ccccn1)c1ccccc1`: the MDR1-MDCK efflux ratio stood at 0.736; the intrinsic clearance, human liver microsomes is not above 4.74 mL/min/kg; the intrinsic clearance, rat liver microsomes is 138 mL/min/kg; the aqueous solubility was found to be 77.6 µg/mL (≈ 305 µM).

In the case of `Cc1cccc(C)c1OCC(=O)N(C)C1(C#N)CCC1`, the MDR1-MDCK efflux ratio is 0.621; the intrinsic clearance, human liver microsomes came out at 13.3 mL/min/kg; the intrinsic clearance, rat liver microsomes is 472 mL/min/kg; the aqueous solubility is 56.1 µg/mL (≈ 206 µM).

For `Cn1cnnc1-c1cccc(NS(=O)(=O)c2cc3c(cc2Cl)OCCO3)c1`, the MDR1-MDCK efflux ratio worked out at 16.9; the intrinsic clearance, human liver microsomes was found to be 16 mL/min/kg; the intrinsic clearance, rat liver microsomes worked out at 308 mL/min/kg.

Take `O=C(Cn1nc(Cc2ccccc2)c2ccccc2c1=O)NCCc1c[nH]cn1`: the MDR1-MDCK efflux ratio stood at 34.6; the intrinsic clearance, human liver microsomes is 36.6 mL/min/kg; the intrinsic clearance, rat liver microsomes is 597 mL/min/kg.

As for `CSC[C@H]1CN(Cc2c[nH]c3c(N)ncnc23)C[C@@H]1O`, the intrinsic clearance, human liver microsomes was not above 4.74 mL/min/kg and the intrinsic clearance, rat liver microsomes is not above 10.7 mL/min/kg.

For `COc1cc(C(C)C)c2c(c1)S(=O)(=O)N(COc1cc(=O)n3cccc(OCCN4CCCCC4)c3n1)C2=O`, the MDR1-MDCK efflux ratio worked out at 91.5; the intrinsic clearance, human liver microsomes came out at 162 mL/min/kg; the intrinsic clearance, rat liver microsomes is 250 mL/min/kg; the aqueous solubility amounted to 53.4 µg/mL (≈ 95.9 µM).

`CCC(=O)N1CCCC(C(=O)N2CCc3c(Cl)cc(Cl)cc3C2C)C1` (stereo not drawn) displayed an intrinsic clearance, human liver microsomes of 416 mL/min/kg; an intrinsic clearance, rat liver microsomes of 1510 mL/min/kg; an aqueous solubility of 54.8 µg/mL (≈ 143 µM).

As for `O=C(c1ccc(Cn2nnc(-c3cccc(F)c3)n2)cc1)N1CCCC1`, the MDR1-MDCK efflux ratio amounted to 0.793; the intrinsic clearance, human liver microsomes came out at 12.1 mL/min/kg; the intrinsic clearance, rat liver microsomes was 125 mL/min/kg; the aqueous solubility turned out to be 10.8 µg/mL (≈ 30.7 µM).

Regarding `CN1CCC(OC(=O)Nc2ccc(Cl)c(Cl)c2)CC1`, the MDR1-MDCK efflux ratio came out at 0.397; the intrinsic clearance, human liver microsomes was 8.57 mL/min/kg; the intrinsic clearance, rat liver microsomes came out at 209 mL/min/kg; the aqueous solubility was determined as 87.4 µg/mL (≈ 288 µM).

On to `O=C(Nc1nnc2n1CCCC2)c1cscn1`, for which the MDR1-MDCK efflux ratio was 4.14; the intrinsic clearance, human liver microsomes is not above 4.74 mL/min/kg; the intrinsic clearance, rat liver microsomes was not above 10.7 mL/min/kg.

`Cc1nn(-c2ccccc2)c(C)c1CN` yielded an aqueous solubility of 20.2 µg/mL (≈ 101 µM).

As for `Clc1ccc(Cc2nc(-c3ccccc3)n[nH]2)cn1`, the MDR1-MDCK efflux ratio is 1.52; the intrinsic clearance, human liver microsomes is 40.9 mL/min/kg; the intrinsic clearance, rat liver microsomes was determined as 66.8 mL/min/kg; the aqueous solubility stood at 20.1 µg/mL (≈ 74.2 µM).

As for `O=C(CCNC(=O)c1ccc(OC(F)(F)F)cc1)N[C@@H]1CCCc2ccccc21`, the MDR1-MDCK efflux ratio is 3.14; the fraction unbound, human plasma is 0.0336; the fraction unbound, rat plasma came out at 0.0427; the intrinsic clearance, human liver microsomes worked out at 154 mL/min/kg. This compound returned an intrinsic clearance, rat liver microsomes of 797 mL/min/kg and an aqueous solubility of 4.6 µg/mL (≈ 11.3 µM).

In turn, `COc1cc(-c2ccc(C)s2)cc2c1OCCN(c1noc(C)n1)C2` returned an intrinsic clearance, human liver microsomes of 57.4 mL/min/kg; an intrinsic clearance, rat liver microsomes of 940 mL/min/kg; an aqueous solubility of 3.01 µg/mL (≈ 8.42 µM).

In the case of `Cn1c(=O)cc(N2CCC[C@@H](N)C2)n(Cc2cc(F)ccc2C#N)c1=O`, the intrinsic clearance, human liver microsomes is not above 4.74 mL/min/kg and the intrinsic clearance, rat liver microsomes was not above 10.7 mL/min/kg.

Regarding `CCNC(=O)c1cc(N2CCC(N3CCCC3=O)CC2)ccn1`, the intrinsic clearance, human liver microsomes was not above 4.74 mL/min/kg and the intrinsic clearance, rat liver microsomes was not above 10.7 mL/min/kg.

Regarding `Cc1sc2nc(CN3CCCC3)nc(N)c2c1C`, the MDR1-MDCK efflux ratio is 17.6; the intrinsic clearance, human liver microsomes was not above 4.74 mL/min/kg; the intrinsic clearance, rat liver microsomes amounted to 2760 mL/min/kg; the aqueous solubility was found to be 44.6 µg/mL (≈ 170 µM).

In the case of `N#Cc1ccc(OCCn2cccn2)cc1`, the MDR1-MDCK efflux ratio turned out to be 0.584; the intrinsic clearance, human liver microsomes came to 6.93 mL/min/kg; the intrinsic clearance, rat liver microsomes was not above 10.7 mL/min/kg; the aqueous solubility is 39.8 µg/mL (≈ 187 µM).

Turning to `CCc1ccc(-c2nccn2Cc2c(C)nn(CC)c2C)o1`, the MDR1-MDCK efflux ratio worked out at 3.28; the intrinsic clearance, human liver microsomes was determined as 246 mL/min/kg; the intrinsic clearance, rat liver microsomes was 3020 mL/min/kg; the aqueous solubility was determined as 40.5 µg/mL (≈ 136 µM).

Compound `COc1ccccc1C(=O)Nc1cccc(-c2ccnc(C)n2)c1` came in with an intrinsic clearance, human liver microsomes of 60.3 mL/min/kg; an intrinsic clearance, rat liver microsomes of 167 mL/min/kg; an aqueous solubility of 46.4 µg/mL (≈ 145 µM).

With `Cc1cc(C)cc(C(=O)Nc2c(C#N)cnn2C)c1`, the MDR1-MDCK efflux ratio came out at 1.1; the intrinsic clearance, human liver microsomes is 27.3 mL/min/kg; the intrinsic clearance, rat liver microsomes came to 80.2 mL/min/kg; the aqueous solubility was 38.2 µg/mL (≈ 150 µM).

With `COc1cccc(NC(=O)CNc2cccc(-c3ccnc(C)n3)c2)c1`, the MDR1-MDCK efflux ratio is 2.39; the intrinsic clearance, human liver microsomes came out at 61.2 mL/min/kg; the intrinsic clearance, rat liver microsomes is 250 mL/min/kg; the aqueous solubility is 50.5 µg/mL (≈ 145 µM).

With `O=C(Nc1ccccc1)c1scnc1-c1ccccc1`, the intrinsic clearance, human liver microsomes worked out at 110 mL/min/kg and the intrinsic clearance, rat liver microsomes amounted to 1040 mL/min/kg.

As for `CCCc1cc(CNC(=O)N2C[C@H]3C[C@@H](C2)c2cccc(=O)n2C3)on1`, the MDR1-MDCK efflux ratio turned out to be 16.4; the intrinsic clearance, human liver microsomes was 16.6 mL/min/kg; the intrinsic clearance, rat liver microsomes was 90.4 mL/min/kg.

For `COc1cccc(-c2nc(-c3cccnc3)n[nH]2)c1`, the MDR1-MDCK efflux ratio turned out to be 0.698; the intrinsic clearance, human liver microsomes was not above 4.74 mL/min/kg; the intrinsic clearance, rat liver microsomes came out at 46.5 mL/min/kg; the aqueous solubility was 22.7 µg/mL (≈ 89.8 µM).

As to `Nc1ccc(Oc2ccccc2F)nc1`, the MDR1-MDCK efflux ratio came to 0.53; the intrinsic clearance, human liver microsomes was not above 4.74 mL/min/kg; the intrinsic clearance, rat liver microsomes turned out to be 26.2 mL/min/kg; the aqueous solubility came out at 25.6 µg/mL (≈ 125 µM).

For `Cc1cc(C(=O)NC(C)(C)C#N)nn1-c1ccc(F)cc1`, the MDR1-MDCK efflux ratio is 1.35; the intrinsic clearance, human liver microsomes is not above 4.74 mL/min/kg; the intrinsic clearance, rat liver microsomes turned out to be 19.7 mL/min/kg.

Take `Cc1oc2cc(OCC(=O)Nc3nccs3)ccc2c(=O)c1Oc1ccc(F)cc1`: the MDR1-MDCK efflux ratio stood at 0.97 and the aqueous solubility was determined as 0.5 µg/mL (≈ 1.17 µM).

Regarding `c1cc(-c2noc(CN3CCOCC3)n2)ccn1`, the MDR1-MDCK efflux ratio came out at 0.732; the intrinsic clearance, human liver microsomes was not above 4.74 mL/min/kg; the intrinsic clearance, rat liver microsomes was 29.8 mL/min/kg.

In the case of `CCN(CC#N)C(=O)c1nn(-c2ccc(F)cc2)c2c1CCCC2`, the MDR1-MDCK efflux ratio is 0.712; the intrinsic clearance, human liver microsomes was 50.2 mL/min/kg; the intrinsic clearance, rat liver microsomes stood at 397 mL/min/kg; the aqueous solubility was found to be 40.5 µg/mL (≈ 124 µM).

Take `Cc1ccccc1NC(=O)Cn1nnc(C2CC2)n1`: the MDR1-MDCK efflux ratio is 0.895; the intrinsic clearance, human liver microsomes is not above 4.74 mL/min/kg; the intrinsic clearance, rat liver microsomes was 51.4 mL/min/kg.

For `Clc1cnc(NCC2(CN3CCCC3)CC2)nc1`, the MDR1-MDCK efflux ratio is 0.734; the intrinsic clearance, human liver microsomes is not above 4.74 mL/min/kg; the intrinsic clearance, rat liver microsomes stood at 134 mL/min/kg.
